# In patent publication US20240150293A1, “SPIROCYCLOHEXANE DERIVATIVES, PHARMACEUTICAL COMPOSITIONS CONTAINING THEM AND THEIR USES AS ANTI-APOPTOTIC INHIBITORS” (LES LABORATOIRES SERVIER, priority 2021, published 2024):
# Like-named read-outs stand apart in the source and are kept apart here.
# Columns and labels:
# [1] = molecular target: Cy5-labelled Mcl1 (amino acids 171-321) C286S protein (UniProtKB Q07820) (Homo sapiens (Human), UniProt Q07820, C286S); test: Inhibition of Mcl-1 by the fluorescence quenching assay (Example A, Method B); assay type: binding
# Sequence of Cy5-labelled Mcl1 (amino acids 171-321) C286S protein (Q07820 171-321 C286S): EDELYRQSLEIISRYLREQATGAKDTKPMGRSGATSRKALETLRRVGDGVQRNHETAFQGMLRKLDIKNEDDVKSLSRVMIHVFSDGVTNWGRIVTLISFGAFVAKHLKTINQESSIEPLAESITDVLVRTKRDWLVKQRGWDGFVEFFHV
# Procedure, shortened: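 Cy5-labelled Mcl1 171-321 C286S (1 nM) quenched by TQ5WS-labelled PUMA peptide (10, 20 or 400 nM); displacement raises fluorescence (Ex 620/Em 680 nm). Buffer 10 mM HEPES, 150 mM NaCl, 0.05% Tween 20, pH 7.4, 5% DMSO; 2 h at room temperature, 11-point curves, IC50 converted to Ki (cKi/eKi).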
# [2] = system: H929 multiple myeloma tumor line; test: In vitro cytotoxicity, MTT assay (Example B, Method A); assay type: cell-based; conditions: H929 cells, 48 hours exposure, read-out: C50
# Experimental: The cytotoxicity studies were carried out on the H929 multiple myeloma tumor line.
# The cells are distributed onto microplates and exposed to the test compounds for 48 hours. The cell viability is then quantified by a colorimetric assay, the Microculture Tetrazolium Assay (Carmichael et al, Cancer Res. 1987, 47, 939-942).
# The results are expressed in C50 which means concentration corresponding to […] of effect/inhibition.
Ki [1],"inhibition at 10 µM ([1]; @ 10 μM, read-out: Mcl-1 inhibition, % at a single concentration)",Structure (SMILES),IC50 [2],"IC50 ([2]; Homo sapiens, NCI-H929, 48 h)"
32.3 nM,–,"C[C@@H]1CCCc2nccc(OCC(CC3Cc4ccccc4[C@]34CC[C@@](Nc3cccc(Cl)c3)(C(=O)O)CC4)C(F)F)c21 (single isomer, unassigned) [Example 521]",986 nM,–
3.76 nM,–,"C[C@@H](COc1ncnc2c1[C@H](C)CCC2)C[C@H]1Cc2ccccc2[C@]12CC[C@@](Nc1cccc(Cl)c1)(C(=O)O)CC2 [Example 638, (1r,2′S,4S)-4-(3-chloroanilino)-2′-[(2R)-2-methyl-3-{[(5R)-5-methyl-5,6,7,8-tetrahydroquinazolin-4-yl]oxy}propyl]-2′,3′-dihydrospiro[cyclohexane-1,1′-indene]-4-carboxylic acid]",–,373 nM
4.8 nM,–,"O=C(O)[C@]1(Nc2cccc(Cl)c2)CC[C@@]2(CC1)c1ccccc1CC2CC(COc1ccccc1)COc1ccnc2ccsc12 (stereo partly shown) [Example 501, (1r,4r)-4-(3-chloroanilino)-2′-{2-(phenoxymethyl)-3-[(thieno[3,2-b]pyridin-7-yl)oxy]propyl}-2′,3′-dihydrospiro[cyclohexane-1,1′-indene]-4-carboxylic acid]",–,431 nM
–,14.8%,"C[C@@H](COc1ccnc2c1[C@H](C)CCC2)C[C@H]1Cc2ccccc2[C@]12CC[C@@](Sc1cccc(Cl)c1)(C(=O)O)CC2 [Example 718, (1r,2′S,4S)-4-[(3-chlorophenyl)sulfanyl]-2′-[(2R)-2-methyl-3-{[(5R)-5-methyl-5,6,7,8-tetrahydroquinolin-4-yl]oxy}propyl]-2′,3′-dihydrospiro[cyclohexane-1,1′-indene]-4-carboxylic acid]",–,15900 nM
0.418 nM,–,"C[C@@H](COc1ccnc2c1[C@H](C)CC[C@H]2O)C[C@H]1Cc2ccccc2[C@]12CC[C@@](Nc1cccc(Cl)c1)(C(=O)O)CC2 [Example 676, (1r,2′S,4S)-4-(3-chloroanilino)-2′-[(2R)-3-{[(5R,8R)-8-hydroxy-5-methyl-5,6,7,8-tetrahydroquinolin-4-yl]oxy}-2-methylpropyl]-2′,3′-dihydrospiro[cyclohexane-1,1′-indene]-4-carboxylic acid]",65.6 nM,–
0.725 nM,–,"C[C@@H](COc1ccnc2c1[C@H](C)CCC2)CC1=Cc2cc(Cl)ccc2[C@]12CC[C@@](Nc1cccc(Cl)c1)(C(=O)O)CC2 [Example 777, (1r,4R)-5′-chloro-4-(3-chloroanilino)-2′-[(2R)-2-methyl-3-{[(5R)-5-methyl-5,6,7,8-tetrahydroquinolin-4-yl]oxy}propyl]spiro[cyclohexane-1,1′-indene]-4-carboxylic acid]",–,175 nM
23.4 nM,–,"O=C(O)[C@]1(Nc2cccc(Cl)c2)CC[C@]2(CC1)C(CC(F)COc1ccnc3c1CCCC3)=Cc1ccccc12 (single isomer, unassigned) [Example 505, (1r,4r)-4-(3-chloroanilino)-2′-{2-fluoro-3-[(5,6,7,8-tetrahydroquinolin-4-yl)oxy]propyl}spiro[cyclohexane-1,1′-indene]-4-carboxylic acid]",–,2380 nM
2.62 nM,–,"Cc1c(OC[C@H](C)C[C@H]2Cc3ccccc3[C@]23CC[C@@](Nc2cccc(Cl)c2)(C(=O)O)CC3)ccnc1CO [Example 586, (1r,2′S,4S)-4-(3-chloroanilino)-2′-[(2R)-3-{[2-(hydroxymethyl)-3-methylpyridin-4-yl]oxy}-2-methylpropyl]-2′,3′-dihydrospiro[cyclohexane-1,1′-indene]-4-carboxylic acid]",–,1610 nM
43.5 nM,–,"O=C(O)[C@]1(Nc2cccc(Cl)c2)CC[C@@]2(CC1)c1ccccc1CC2CC(COc1ccnc2ccsc12)Cc1ccccc1 (single isomer, unassigned) [Example 563, (1r,4r)-2′-{2-benzyl-3-[(thieno[3,2-b]pyridin-7-yl)oxy]propyl}-4-(3-chloroanilino)-2′,3′-dihydrospiro[cyclohexane-1,1′-indene]-4-carboxylic acid]",3950 nM,–
10.4 nM,–,"C[C@@H](COc1ccncc1C1CC1)C[C@H]1Cc2ccccc2[C@]12CC[C@@](Nc1cccc(Cl)c1)(C(=O)O)CC2 [Example 577, (1r,2′S,4S)-4-(3-chloroanilino)-2′-{(2R)-3-[(3-cyclopropylpyridin-4-yl)oxy]-2-methylpropyl}-2′,3′-dihydrospiro[cyclohexane-1,1′-indene]-4-carboxylic acid]",–,1190 nM
0.965 nM,–,"C[C@@H](COc1ccnc2c1[C@H](C)CC[C@@H]2F)C[C@H]1Cc2ccccc2[C@]12CC[C@@](Nc1cccc(Cl)c1)(C(=O)O)CC2 [Example 688, (1r,2′S,4S)-4-(3-chloroanilino)-2′-[(2R)-3-{[(5S,8R)-8-fluoro-5-methyl-5,6,7,8-tetrahydroquinolin-4-yl]oxy}-2-methylpropyl]-2′,3′-dihydrospiro[cyclohexane-1,1′-indene]-4-carboxylic acid]",–,234 nM
363 nM,–,"CC(CC1Cc2ccccc2[C@]12CC[C@@](Nc1cccc(Cl)c1)(C(=O)O)CC2)C1CCC(=O)CC1 (single isomer, unassigned) [Example 570, (1r,4r)-4-(3-chloroanilino)-2′-[2-(4-oxocyclohexyl)propyl]-2′,3′-dihydrospiro[cyclohexane-1,1′-indene]-4-carboxylic acid]",–,30000 nM
0.198 nM,–,"Cc1cc(C(C)O)cc2c1C=C(C[C@@H](C)COc1ccnc3c1[C@H](C)CCC3)[C@]21CC[C@](Nc2cccc(Cl)c2)(C(=O)O)CC1 (single isomer, unassigned) [Example 760]",81.7 nM,–
2.09 nM,–,"C[C@@H](COc1ccnc2c1CCC[C@@H]2F)C[C@H]1Cc2ccccc2[C@]12CC[C@@](Nc1cccc(Cl)c1)(C(=O)O)CC2 [Example 680, (1r,2′S,4S)-4-(3-chloroanilino)-2′-[(2R)-3-{[(8S)-8-fluoro-5,6,7,8-tetrahydroquinolin-4-yl]oxy}-2-methylpropyl]-2′,3′-dihydrospiro[cyclohexane-1,1′-indene]-4-carboxylic acid]",–,687 nM
2.55 nM,–,"C[C@@H](COc1ccnc2ccsc12)C[C@H]1Cc2ccc(F)cc2[C@]12CC[C@@](Nc1cccc(Cl)c1)(C(=O)O)CC2 [Example 735, (1r,2′S,4S)-4-(3-chloroanilino)-6′-fluoro-2′-{(2R)-2-methyl-3-[(thieno[3,2-b]pyridin-7-yl)oxy]propyl}-2′,3′-dihydrospiro[cyclohexane-1,1′-indene]-4-carboxylic acid]",–,433 nM
980 nM,–,"Cc1cn(C[C@H](C)C[C@H]2Cc3ccccc3[C@]23CC[C@@](Nc2cccc(Cl)c2)(C(=O)O)CC3)c2c(c1=O)C(C)CCC2 (single isomer, unassigned) [Example 640]",18100 nM,–
0.446 nM,–,"C[C@@H](COc1ccnc2c1[C@H](C)CCC2)C[C@H]1Cc2ccccc2[C@]12CC[C@@](Nc1cccc(Br)c1)(C(=O)O)CC2 [Example 711, (1r,2′S,4S)-4-(3-bromoanilino)-2′-[(2R)-2-methyl-3-{[(5R)-5-methyl-5,6,7,8-tetrahydroquinolin-4-yl]oxy}propyl]-2′,3′-dihydrospiro[cyclohexane-1,1′-indene]-4-carboxylic acid]",–,59.8 nM
20.3 nM,–,"C[C@@H]1CCCc2nccc(OCC(F)CC3Cc4ccccc4[C@]34CC[C@@](Nc3cccc(Cl)c3)(C(=O)O)CC4)c21 (single isomer, unassigned) [Example 508]",3640 nM,–
92 nM,–,"O=C(O)[C@]1(Nc2cccc(Cl)c2)CC[C@@]2(CC1)c1ccccc1CC2CC(COc1ccnc2ccsc12)Cc1ccccc1 (single isomer, unassigned) [Example 560, (1r,4r)-2′-{2-benzyl-3-[(thieno[3,2-b]pyridin-7-yl)oxy]propyl}-4-(3-chloroanilino)-2′,3′-dihydrospiro[cyclohexane-1,1′-indene]-4-carboxylic acid]",12600 nM,–
0.593 nM,–,"C[C@@H](COc1ccnc2c1[C@H](C)CCC2)CC1=Cc2ccccc2[C@]12CC[C@@](Nc1cccc(Cl)c1)(C(=O)O)CC2 [Example 646, (1r,4R)-4-(3-chloroanilino)-2′-[(2R)-2-methyl-3-{[(5R)-5-methyl-5,6,7,8-tetrahydroquinolin-4-yl]oxy}propyl]spiro[cyclohexane-1,1′-indene]-4-carboxylic acid]",–,148 nM
1.58 nM,–,"C[C@@H](COc1ccnc2c1[C@H](C)CCC2)CC1Cc2c(Cl)cccc2[C@]12CC[C@@](Nc1cccc(Cl)c1)(C(=O)O)CC2 (single isomer, unassigned) [Example 741]",132 nM,–
3.01 nM,–,"C[C@@H]1Cc2nccc(OC[C@H](C)C[C@H]3Cc4ccccc4[C@]34CC[C@@](Nc3cccc(Cl)c3)(C(=O)O)CC4)c2[C@H](C)C1 [Example 665, (1r,2′S,4S)-4-(3-chloroanilino)-2′-[(2R)-3-{[(5R,7S)-5,7-dimethyl-5,6,7,8-tetrahydroquinolin-4-yl]oxy}-2-methylpropyl]-2′,3′-dihydrospiro[cyclohexane-1,1′-indene]-4-carboxylic acid]",–,276 nM
44.1 nM,–,"Cc1cc(Cl)cc(N[C@]2(C(=O)O)CC[C@]3(CC2)c2ccccc2C[C@@H]3C[C@@H](C)COc2ccnc3c2[C@H](C)CCC3)c1 [Example 710, (1r,2′S,4S)-4-(3-chloro-5-methylanilino)-2′-[(2R)-2-methyl-3-{[(5R)-5-methyl-5,6,7,8-tetrahydroquinolin-4-yl]oxy}propyl]-2′,3′-dihydrospiro[cyclohexane-1,1′-indene]-4-carboxylic acid]",–,3280 nM
